Literature values in publication PMC4411882, “Developmental Potential for Endomorphin Opioidmimetic Drugs” (International Journal of Medicinal Chemistry, 2012).
Read-outs that look alike come from different tables or passages of the source.

How the values were obtained:
μ-opioid receptor [1] = target: T1, μ-opioid receptor (Rattus norvegicus, UniProt P33535); parameters: gene Oprm1; settings: read-out: Kiμ
δ-opioid receptor [2] = target: T2, δ-opioid receptor (Rattus norvegicus, UniProt P33533); parameters: gene Oprd1; settings: read-out: Kiδ
μ-opioid receptor (GPI) = target: T3, μ-opioid receptor (GPI) (Cavia porcellus, UniProt P97266); parameters: species or system guinea pig ileum
T3 construct: gene OPRM1; guinea pig ileum (GPI) bioassay
Excerpt: (§1) Therefore, we substituted hydrophobic groups in lieu of the phenethyl group to develop the class of H-Dmt-Pro-Phe-NH-X ligands (Figure 1).

μ-opioid receptor [3] = target: T1, μ-opioid receptor; parameters: gene Oprm1; rat brain P2 synaptosomal preparations; species or system rat brain P2 synaptosomal preparations; settings: read-out: Kiμ
δ-opioid receptor (MVD) = target: T4, δ-opioid receptor (MVD) (Mus musculus, UniProt P32300); parameters: species or system mouse vas deferens
T4 construct: gene Oprd1; mouse vas deferens (MVD) bioassay
Excerpt: as §1

δ-opioid receptor [4] = target: T2, δ-opioid receptor; parameters: gene Oprd1; rat brain P2 synaptosomal preparations; species or system rat brain P2 synaptosomal preparations; settings: read-out: Kiδ

T1 sequence (P33535 whole entry): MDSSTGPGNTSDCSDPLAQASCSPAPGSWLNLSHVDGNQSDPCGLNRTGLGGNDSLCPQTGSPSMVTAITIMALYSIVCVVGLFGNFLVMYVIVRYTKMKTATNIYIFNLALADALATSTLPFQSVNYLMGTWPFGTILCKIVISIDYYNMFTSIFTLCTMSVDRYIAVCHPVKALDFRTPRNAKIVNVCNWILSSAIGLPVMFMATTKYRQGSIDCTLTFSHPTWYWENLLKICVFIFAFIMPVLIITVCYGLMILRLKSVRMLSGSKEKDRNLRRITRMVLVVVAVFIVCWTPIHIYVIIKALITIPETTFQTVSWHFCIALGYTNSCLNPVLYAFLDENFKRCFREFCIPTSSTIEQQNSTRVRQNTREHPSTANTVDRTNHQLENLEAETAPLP
T2 sequence (P33533 whole entry): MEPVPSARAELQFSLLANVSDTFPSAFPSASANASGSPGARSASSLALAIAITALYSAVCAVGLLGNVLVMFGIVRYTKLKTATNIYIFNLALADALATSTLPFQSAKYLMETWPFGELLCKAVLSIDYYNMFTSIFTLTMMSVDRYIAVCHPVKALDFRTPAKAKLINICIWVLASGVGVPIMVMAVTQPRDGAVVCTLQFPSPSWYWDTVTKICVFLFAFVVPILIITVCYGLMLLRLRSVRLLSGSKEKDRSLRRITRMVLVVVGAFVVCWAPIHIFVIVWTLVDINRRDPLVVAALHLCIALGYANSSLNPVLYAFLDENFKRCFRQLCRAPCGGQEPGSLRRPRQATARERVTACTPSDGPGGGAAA
T4 sequence (P32300 whole entry): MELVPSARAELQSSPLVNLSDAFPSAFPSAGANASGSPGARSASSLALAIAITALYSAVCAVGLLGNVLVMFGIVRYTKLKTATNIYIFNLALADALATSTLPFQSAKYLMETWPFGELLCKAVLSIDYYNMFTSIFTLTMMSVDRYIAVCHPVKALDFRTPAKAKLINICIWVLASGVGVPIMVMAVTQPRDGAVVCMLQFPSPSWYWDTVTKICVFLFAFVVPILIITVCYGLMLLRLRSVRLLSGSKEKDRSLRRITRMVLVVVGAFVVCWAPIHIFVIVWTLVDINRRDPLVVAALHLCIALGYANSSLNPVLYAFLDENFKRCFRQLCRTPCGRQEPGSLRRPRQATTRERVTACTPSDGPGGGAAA
T3 sequence (P97266 whole entry): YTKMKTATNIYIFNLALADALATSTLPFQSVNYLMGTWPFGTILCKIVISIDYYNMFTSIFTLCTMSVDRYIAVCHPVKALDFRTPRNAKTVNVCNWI

| Compound | Ki (μ-opioid receptor [1]) [nM] | Ki (δ-opioid receptor [2]) [nM] | IC50 (μ-opioid receptor (GPI)) [nM] | Ki (μ-opioid receptor [3]) [nM] | IC50 (δ-opioid receptor (MVD)) [nM] | Ki (δ-opioid receptor [4]) [nM] |
| --- | --- | --- | --- | --- | --- | --- |
| CNC(=O)C(N)Cc1c(C)cc(O)cc1C (stereo not shown) [H-Dmt-NH-CH3] | 7.45 | 460 |  |  |  |  |
| Cc1cc(O)cc(C)c1C[C@H](N)C(=O)NCCCCCCCCNC(=O)[C@@H](N)Cc1c(C)cc(O)cc1C [compound 54, Dmt-NH-(CH2)8-NH-Dmt] |  |  | 53.7 | 0.19 | > 10000 | 14.8 |
| Cc1cc(O)cc(C)c1CC(N)C(=O)NCc1[nH]c(=O)c(CNC(=O)C(N)Cc2c(C)cc(O)cc2C)nc1C (stereo not shown) [compound 55, 3,6-bis[Dmt-NH-CH2]-5-methyl-2(1H)-pyrazinone] |  |  | 1700 | 1.16 | > 10000 | 15.7 |
| Cc1cc(O)cc(C)c1CC(N)C(=O)NCCCc1[nH]c(=O)c(CCCNC(=O)C(N)Cc2c(C)cc(O)cc2C)nc1C (stereo not shown) [compound 57, 3,6-bis[Dmt-NH(CH2)3]-5-methyl-2(1H)-pyrazinone] |  |  | 1.33 | 0.042 | > 10000 | 13.2 |
| Cc1cc(O)cc(C)c1CC(N)C(=O)NCCCCc1[nH]c(=O)c(CCCCNC(=O)C(N)Cc2c(C)cc(O)cc2C)nc1C (stereo not shown) [compound 58, 3,6-bis[Dmt-NH(CH2)4]-5-methyl-2(1H)-pyrazinone] |  |  | 1.9 | 0.114 | 41.5 | 23.2 |
| Cc1cc(O)cc(C)c1CC(N)C(=O)N1Cc2ccccc2CC1C(=O)NCc1[nH]c(=O)c(CNC(=O)C2Cc3ccccc3CN2C(=O)C(N)Cc2c(C)cc(O)cc2C)nc1C (stereo not drawn) [compound 59, 3,6-bis[Dmt-Tic-NH-CH2]-5-methyl-2(1H)-pyrazinone] |  |  | > 10000 | 3.76 | > 10000 | 0.163 |
| Cc1cc(O)cc(C)c1CC(N)C(=O)N1Cc2ccccc2CC1C(=O)NCCc1[nH]c(=O)c(CCNC(=O)C2Cc3ccccc3CN2C(=O)C(N)Cc2c(C)cc(O)cc2C)nc1C (stereo not drawn) [compound 60, 3,6-bis[Dmt-Tic-NH(CH2)2]-5-methyl-2(1H)-pyrazinone] |  |  | > 10000 | 2.83 | > 10000 | 0.095 |
| Cc1cc(O)cc(C)c1CC(N)C(=O)N1Cc2ccccc2CC1C(=O)NCCCc1[nH]c(=O)c(CCCNC(=O)C2Cc3ccccc3CN2C(=O)C(N)Cc2c(C)cc(O)cc2C)nc1C (stereo not drawn) [compound 61, 3,6-bis[Dmt-Tic-NH(CH2)3]-5-methyl-2(1H)-pyrazinone] |  |  | 7020 | 3.08 | > 10000 | 0.155 |
| Cc1cc(O)cc(C)c1CC(N)C(=O)N1Cc2ccccc2CC1C(=O)NCCCCc1[nH]c(=O)c(CCCCNC(=O)C2Cc3ccccc3CN2C(=O)C(N)Cc2c(C)cc(O)cc2C)nc1C (stereo not drawn) [compound 62, 3,6-bis[Dmt-Tic-NH(CH2)4]-5-methyl-2(1H)-pyrazinone] |  |  | > 10000 | 1.74 | > 10000 | 0.323 |
| Cc1cc(O)cc(C)c1CC(N)C(=O)N1Cc2ccccc2CC1C(=O)NCCCCc1[nH]c(=O)c(CCCNC(=O)C2Cc3ccccc3CN2C(=O)C(N)Cc2c(C)cc(O)cc2C)nc1C (stereo not drawn) [compound 63, 3-[Dmt-Tic-NH(CH2)3]-6-[Dmt-Tic-NH(CH2)4]-5-methyl-2(1H)-pyrazinone] |  |  | > 10000 | 1.56 | > 10000 | 0.16 |
| Cc1cc(O)cc(C)c1CC(N)C(=O)N1Cc2ccccc2CC1C(=O)NCCCCc1nc(C)c(CCCNC(=O)C2Cc3ccccc3CN2C(=O)C(N)Cc2c(C)cc(O)cc2C)[nH]c1=O (stereo not drawn) [compound 64, 3-[Dmt-Tic-NH(CH2)4]-6-[Dmt-Tic-NH(CH2)3]-5-methyl-2(1H)-pyrazinone] |  |  | > 10000 | 2.28 | > 10000 | 0.092 |
| Cc1cc(O)cc(C)c1CC(N)C(=O)N1Cc2ccccc2CC1C(=O)NCCCCc1[nH]c(=O)c(CCNC(=O)C2Cc3ccccc3CN2C(=O)C(N)Cc2c(C)cc(O)cc2C)nc1C (stereo not drawn) [compound 65, 3-[Dmt-Tic-NH(CH2)2]-6-[Dmt-Tic-NH(CH2)4]-5-methyl-2(1H)-pyrazinone] |  |  | > 10000 | 1.37 | > 10000 | 0.107 |
| Cc1cc(O)cc(C)c1C[C@H](N)C(=O)N1Cc2ccccc2C[C@H]1C(=O)NCCCCNC(=O)[C@@H]1Cc2ccccc2CN1C(=O)[C@@H](N)Cc1c(C)cc(O)cc1C [compound 66, bis[Dmt-Tic-NH]butane] |  |  | > 10000 | 5.72 | > 10000 | 0.124 |
| Cc1cc(O)cc(C)c1C[C@H](N)C(=O)N1Cc2ccccc2C[C@H]1C(=O)NCCCCCCCCCCNC(=O)[C@@H]1Cc2ccccc2CN1C(=O)[C@@H](N)Cc1c(C)cc(O)cc1C [compound 68, bis[Dmt-Tic-NH]decane] |  |  | 5420 | 4.86 | > 10000 | 1.53 |
| Cc1cc(O)cc(C)c1CC(C(=O)N1Cc2ccccc2CC1C(=O)NCCCCCCNC(=O)C1Cc2ccccc2CN1C(=O)C(Cc1c(C)cc(O)cc1C)N(C)C)N(C)C (stereo not drawn) [compound 69, bis[N,N-dimethyl-Dmt-Tic-NH]hexane] |  |  | > 10000 | 2.21 | > 10000 | 0.06 |
| Cc1cc(O)cc(C)c1CC(C(=O)N1Cc2ccccc2CC1C(=O)NCCCc1[nH]c(=O)c(CCCNC(=O)C2Cc3ccccc3CN2C(=O)C(Cc2c(C)cc(O)cc2C)N(C)C)nc1C)N(C)C (stereo not drawn) [compound 70, 3,6-bis[N,N-dimethyl-Dmt-Tic-NH-propyl]-5-methyl-2(1H)-pyrazinone] |  |  | > 10000 | 1.68 | > 10000 | 0.287 |
| H-Dit-Pro-Phe-Phe-NH2 [compound 38] |  |  | 299 | 2.29 | > 10000 | 105 |
| H-Dmt-Pro-Mmp-Phe-NH2 [compound 40] |  |  | 0.16 | 0.18 | > 10000 | 4.61 |
| H-Dmt-Pro-Tmp-Phe-NH2 [compound 44] |  |  | 0.21 | 0.18 | > 10000 | 1.83 |
| H-Mmt-Pro-Phe-Phe-NH2 [compound 34] |  |  | 0.924 | 0.132 | 28.7 | 529 |
| H-Tmt-Pro-Phe-Phe-NH2 [compound 39] |  |  | 2.31 | 0.111 | 46.4 | 594 |
